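At the GI50, growth is halved. The concentration for full growth arrest is given as TGI.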
What was measured:
Assay in all cases: NCI tumour cell line growth inhibition, 384-well format
[1] = test system: 786-0 renal
[2] = test system: A498 renal
[3] = test system: A549 NSCLC
[4] = test system: ACHN renal
[5] = test system: BT-549 breast
[6] = test system: CAKI-1 renal
[7] = test system: CCRF-CEM leukemia
[8] = test system: COLO 205 colon
[9] = test system: DU-145 prostate
[10] = test system: EKVX NSCLC
[11] = test system: HCC-2998 colon
[12] = test system: HCT-116 colon
[13] = test system: HCT-15 colon
[14] = test system: HL-60(TB) leukemia
[15] = test system: HOP-62 NSCLC
[16] = test system: HOP-92 NSCLC
[17] = test system: HS 578T breast
[18] = test system: HT29 colon
[19] = test system: IGROV1 ovarian
[20] = test system: K-562 leukemia
[21] = test system: KM12 colon
[22] = test system: LOX IMVI melanoma
[23] = test system: M14 melanoma
[24] = test system: MALME-3M melanoma
[25] = test system: MCF7 breast
[26] = test system: MDA-MB-231 breast
[27] = test system: MDA-MB-435 melanoma
[28] = test system: MDA-MB-468 breast
[29] = test system: MOLT-4 leukemia
[30] = test system: NCI-H226 lung
[31] = test system: NCI-H23 lung
[32] = test system: NCI-H322M lung
[33] = test system: NCI-H460 NSCLC
[34] = test system: NCI-H522 lung
[35] = test system: NCI/ADR-RES ovarian
[36] = test system: OVCAR-3 ovarian
[37] = test system: OVCAR-4 ovarian
[38] = test system: OVCAR-5 ovarian
[39] = test system: OVCAR-8 ovarian
[40] = test system: PC-3 prostate
[41] = test system: RPMI-8226 leukemia
[42] = test system: RXF 393 renal
[43] = test system: SF-268 CNS
[44] = test system: SF-295 CNS
[45] = test system: SF-539 CNS
[46] = test system: SK-MEL-28 melanoma
[47] = test system: SK-MEL-5 melanoma
[48] = test system: SK-OV-3 ovarian
[49] = test system: SN12C renal
[50] = test system: SNB-19 CNS
[51] = test system: SNB-75 CNS
[52] = test system: SW-620 colon
[53] = test system: T-47D breast
[54] = test system: TK-10 renal
[55] = test system: U251 glioblastoma
[56] = test system: UACC-257 melanoma
[57] = test system: UACC-62 melanoma
[58] = test system: UO-31 renal

Compound O=C(Nc1ccc(-c2ccnc(Nc3ccc(N4CCOCC4)cc3)n2)cc1)C1CCCN1 (stereo unspecified) has a GI50 [1] of 2.82 µM, a TGI [1] of 11.7 µM and a GI50 [2] of 6.48 µM. For the same compound, the TGI [2] was 18.9 µM, the GI50 [3] was 4.69 µM and the TGI [3] was 17.8 µM. It also gave a GI50 [4] of 4.76 µM, a TGI [4] of 17.6 µM and a GI50 [5] of 3.78 µM. The TGI [5] was 14.1 µM, the GI50 [6] was 4.41 µM and the TGI [6] was 15.6 µM. For the same compound, the GI50 [7] was 1.79 µM, the TGI [7] was 10.1 µM and the GI50 [8] was 2.68 µM. The TGI [8] was 17.4 µM, the GI50 [9] was 4.54 µM and the TGI [9] was 15.4 µM. The GI50 [10] was 11.9 µM, the TGI [10] was 24.9 µM and the GI50 [11] was 2.46 µM. It also gave a TGI [11] of 8.76 µM, a GI50 [12] of 1.5 µM and a TGI [12] of 11.6 µM. For the same compound, the GI50 [13] was 1.25 µM, the TGI [13] was 15 µM and the GI50 [14] was 1.56 µM. It also gave a TGI [14] of 3.22 µM, a GI50 [15] of 11.4 µM and a TGI [15] of 24.7 µM. For the same compound, the GI50 [16] was 4.9 µM, the TGI [16] was 20.2 µM and the GI50 [17] was 4.67 µM. It also gave a TGI [17] of 16.7 µM, a GI50 [18] of 2.22 µM and a TGI [18] of 10.8 µM. It also gave a GI50 [19] of 3.52 µM, a TGI [19] of 16.7 µM and a GI50 [20] of 1.39 µM. It also gave a TGI [20] of 10.9 µM, a GI50 [21] of 8 µM and a TGI [21] of 21.1 µM. For the same compound, the GI50 [22] was 1.74 µM, the TGI [22] was 7.69 µM and the GI50 [23] was 5.63 µM. It also gave a TGI [23] of 18.2 µM, a GI50 [24] of 3.88 µM and a TGI [24] of 15.4 µM. For the same compound, the GI50 [25] was 4.63 µM, the TGI [25] was 17.6 µM and the GI50 [26] was 0.87 µM. It also gave a TGI [26] of 17.3 µM, a GI50 [27] of 7.37 µM and a TGI [27] of 19.8 µM. It also gave a GI50 [28] of 2.02 µM, a TGI [28] of 8.28 µM and a GI50 [29] of 0.439 µM. For the same compound, the TGI [29] was 1.56 µM, the GI50 [30] was 1.24 µM and the TGI [30] was 10.6 µM. It also gave a GI50 [31] of 13.7 µM, a TGI [31] of 27.1 µM and a GI50 [32] of 10.4 µM. The TGI [32] was 22.8 µM, the GI50 [33] was 1.65 µM and the TGI [33] was 10.9 µM. The GI50 [34] was 2.88 µM, the TGI [34] was 6.72 µM and the GI50 [35] was 7.15 µM. It also gave a TGI [35] of 21.9 µM, a GI50 [36] of 12.8 µM and a TGI [36] of 26.2 µM. The GI50 [37] was 14.5 µM, the TGI [37] was 28.7 µM and the GI50 [38] was 12.4 µM. For the same compound, the TGI [38] was 25.6 µM, the GI50 [39] was 5.11 µM and the TGI [39] was 18.1 µM. It also gave a GI50 [40] of 5.86 µM, a TGI [40] of 19.7 µM and a GI50 [41] of 1.29 µM. It also gave a TGI [41] of 10.5 µM, a GI50 [42] of 1.6 µM and a TGI [42] of 12.1 µM. For the same compound, the GI50 [43] was 0.204 µM, the TGI [43] was 0.857 µM and the GI50 [44] was 7.63 µM. The TGI [44] was 21.3 µM, the GI50 [45] was 3.89 µM and the TGI [45] was 15.2 µM. For the same compound, the GI50 [46] was 7.45 µM, the TGI [46] was 20.5 µM and the GI50 [47] was 0.687 µM. The TGI [47] was 14.2 µM, the GI50 [48] was 3.29 µM and the TGI [48] was 16.5 µM. For the same compound, the GI50 [49] was 3.6 µM, the TGI [49] was 17 µM and the GI50 [50] was 11.4 µM. It also gave a TGI [50] of 26.6 µM, a GI50 [51] of 4.17 µM and a TGI [51] of 15.3 µM. For the same compound, the GI50 [52] was 5.25 µM, the TGI [52] was 16 µM and the GI50 [53] was 5.28 µM. The TGI [53] was 15.8 µM, the GI50 [54] was 2.78 µM and the TGI [54] was 19.2 µM. For the same compound, the GI50 [55] was 3.9 µM, the TGI [55] was 17 µM and the GI50 [56] was 2.46 µM. For the same compound, the TGI [56] was 5.49 µM, the GI50 [57] was 3.1 µM and the TGI [57] was 16.8 µM. The GI50 [58] was 3.96 µM and the TGI [58] was 15.8 µM.
